Measured values published in PMC11578313, “Miniaturized Modular Click Chemistry‐enabled Rapid Discovery of Unique SARS‐CoV‐2 M^pro Inhibitors With Robust Potency and Drug‐like Profile” (Advanced Science, 2024).

Key:
[1] = in vitro; conditions: rhesus monkey
[2] = Cytotoxicity assay (MTT) in MRC‐5 cells; conditions: human
[3] = in vivo; conditions: ICR, mouse, po
[4] = test system: SARS‐CoV‐2 viral RNA; assay type: cell-based
[5] = test system: MERS‐CoV; assay: microbe, parasite or virus in culture; assay type: cell-based
[6] = test system: Kunming mice; assay: Acute toxicity experiment; assay type: in vivo
Method: The acute and subacute toxicity of C5N17B were assessed in Kunming mice. In the acute toxicity study, one group received an oral dose of 500 mg kg^−1 of C5N17B. In the subacute toxicity study, a different group was administered a lower dose of 50 mg kg^−1 of C5N17B. Each experimental set included a control group that received only the vehicle treatment.
Kunming mice were group housed both during acclimation and the study period. The animal room environment was controlled to maintain specific target conditions, including a temperature range of 20 °C to 25 °C, relative humidity levels between 40% and 70%, and an alternating schedule of artificial light for 12 h followed by 12 h of darkness. The age of Kunming mice in the acute/subacute toxicity study was 3–4 weeks, and the body weights were ≈20 g. All animal experiments related to this study were approved by the ethics committee of Cheeloo College of Medicine (approval No. 230014), Shandong University (Jinan, China) Procedures performed in the studies were guided by the ethical standards of the institution.
A group of Kunming mice (comprising three males and three females) was supplied by the Animal Experimental Center of Shandong University. […]

[7] = 10 mg/kg, p.o. in combination with ritonavir, p.o. 10 mg kg^−1 with 20 mg kg^−1 ritonavir, ICR mice, n = 3
[8] = male, 10 mg/kg, Mean, C5N17B+Ritonavir, PO 10 mg/kg, mean of 3 mice
[9] = male, 10 mg/kg, Plasma concentration (Calculated Concentration), C5N17B+Ritonavir, PO 10 mg/kg, mouse plasma, individual mice
[10] = male, 10 mg/kg, Plasma concentration, Mean, C5N17B+Ritonavir, PO 10 mg/kg, mean of mice 1#-3#

Cc1cncc(C(=O)N2C[C@H]3CC[C@@H](C2)N3[C@H](c2cccc(F)c2)c2cn(CCc3ccsc3)nn2)c1 [Compound C5N17B]
CC50 [1]: > 100 µM
CC50 at 5 day [2]: > 100 µM
CC50 at 6 day [2]: > 100 µM
Cmax [3, 7]: 2300 ± 162 ng/mL
MRT ([3]; 10 mg/kg, MRT0‐t, p.o. in combination with ritonavir, p.o. 10 mg kg^−1 with 20 mg kg^−1 ritonavir, ICR mice, n = 3): 3.15 ± 0.456 h
MRT ([3]; 10 mg/kg, MRT0‐∞, p.o. in combination with ritonavir, p.o. 10 mg kg^−1 with 20 mg kg^−1 ritonavir, ICR mice, n = 3): 4.88 ± 2.7 h
Tmax [3, 7]: 2.08 ± 1.88 h
half-life ([3]; 10 mg/kg, t1/2, p.o. in combination with ritonavir, p.o. 10 mg kg^−1 with 20 mg kg^−1 ritonavir, ICR mice, n = 3): 3.14 ± 2.06 h
AUC ([3]; AUC0‐t, p.o. in combination with ritonavir, p.o. 10 mg kg^−1 with 20 mg kg^−1 ritonavir, ICR mice, n = 3): 11500 ng·h/mL
AUC(0-t) ([3]; male, 10 mg/kg, AUC0-t, C5N17B+Ritonavir, PO 10 mg/kg, individual mice 1#-3#): 9690 ng·h/mL
AUC(0-t) ([3]; male, 10 mg/kg, AUC0-t, Mean, C5N17B+Ritonavir, PO 10 mg/kg, mean of 3 mice): 11500 ng·h/mL
AUC(0-inf) ([3]; male, 10 mg/kg, AUC0-∞, C5N17B+Ritonavir, PO 10 mg/kg, individual mice 1#-3#): 10400 ng·h/mL
AUC(0-inf) ([3]; male, 10 mg/kg, AUC0-∞, Mean, C5N17B+Ritonavir, PO 10 mg/kg, mean of 3 mice): 14200 ng·h/mL
AUC(0-inf) ([3]; male, 10 mg/kg, AUCINF_obs, C5N17B+Ritonavir, po 10 mg/kg, non-compartmental output, individual mice): 10400 ng·h/mL
AUC(0-inf) ([3]; male, 10 mg/kg, AUCINF_pred, C5N17B+Ritonavir, po 10 mg/kg, based on predicted Clast, individual mice): 10800 ng·h/mL
AUC ([3]; male, 10 mg/kg, AUCall, C5N17B+Ritonavir, po 10 mg/kg, non-compartmental output, individual mice): 9690 ng·h/mL
AUC(0-t) ([3]; male, 10 mg/kg, AUClast, C5N17B+Ritonavir, po 10 mg/kg, non-compartmental output, individual mice): 9690 ng·h/mL
CL/F ([3]; male, 10 mg/kg, Cl_F_obs, C5N17B+Ritonavir, po 10 mg/kg, non-compartmental output, individual mice): 16 mL/min/kg
Cmax ([3]; male, 10 mg/kg, C5N17B+Ritonavir, PO 10 mg/kg, individual mice 1#-3#): 2270 ng/mL
Cmax ([3]; male, 10 mg/kg, C5N17B+Ritonavir, po 10 mg/kg, non-compartmental output, individual mice): 2270 ng/mL
Cmax [3, 8]: 2300 ng/mL
MRT last ([3]; male, 10 mg/kg, MRT0-t, C5N17B+Ritonavir, PO 10 mg/kg, individual mice 1#-3#): 2.62 h
MRT last ([3]; male, 10 mg/kg, MRT0-t, Mean, C5N17B+Ritonavir, PO 10 mg/kg, mean of 3 mice): 3.15 h
MRT inf ([3]; male, 10 mg/kg, MRT0-∞, Mean, C5N17B+Ritonavir, PO 10 mg/kg, mean of 3 mice): 4.88 h
MRT last ([3]; male, 10 mg/kg, MRTlast, C5N17B+Ritonavir, po 10 mg/kg, non-compartmental output, individual mice): 2.62 h
concentration at 5 min ([3]; male, 10 mg/kg, Plasma concentration (Calculated Concentration), C5N17B+Ritonavir, PO 10 mg/kg, mouse plasma, 5 min (5min), individual mice): 680 ng/mL
concentration at 0.5 h ([3]; male, 10 mg/kg, Plasma concentration (Calculated Concentration), C5N17B+Ritonavir, PO 10 mg/kg, mouse plasma, 0.5 h (30min), individual mice): 2280 ng/mL
concentration at 1 h [3, 9]: 2210 ng/mL
concentration at 2 h [3, 9]: 1910 ng/mL
concentration at 4 h [3, 9]: 1180 ng/mL
concentration at 5 min ([3]; male, 10 mg/kg, Plasma concentration, Mean, C5N17B+Ritonavir, PO 10 mg/kg, 5 min, mean of mice 1#-3#): 660 ng/mL
concentration at 0.5 h ([3]; male, 10 mg/kg, Plasma concentration, Mean, C5N17B+Ritonavir, PO 10 mg/kg, 0.50 h, mean of mice 1#-3#): 1740 ng/mL
concentration at 1 h [3, 10]: 1970 ng/mL
concentration at 2 h [3, 10]: 2110 ng/mL
concentration at 4 h [3, 10]: 1750 ng/mL
concentration at 6 h ([3]; male, 10 mg/kg, Plasma concentration, Mean, C5N17B+Ritonavir, PO 10 mg/kg, 6 h, mean of mice 1#-3#): 1040 ng/mL
concentration at 8 h ([3]; male, 10 mg/kg, Plasma concentration, Mean, C5N17B+Ritonavir, PO 10 mg/kg, 8 h, mean (1# BQL)): 490 ng/mL
half-life ([3]; male, 10 mg/kg, T1/2, Mean, C5N17B+Ritonavir, PO 10 mg/kg, mean of 3 mice): 3.14 h
Tmax [3, 8]: 2.08 h
reduction in viral RNA [4]: exceeded 3 log orders
decrease in viral RNA copy number compared to 10.0 µM nirmatrelvir ([4]; 0.041 µM): 20 fold
EC50 ± SD, MERS‐CoV [5]: failed to inhibit
EC50 ([5]; Middle East respiratory syndrome-related coronavirus, Huh-7, read-out: EC50 ± SD, MERS‐CoV): > 100 µM
body weight compared to the control group, acute toxicity ([6]; 500 mg kg^−1, 7 days): no significant changes in body weight
fatalities or abnormal behavior, acute toxicity ([6]; oral dose of 500 mg kg^−1, Kunming mice): No fatalities or abnormal behavior
